Test results from patent US20260308536A1, “NOVEL URICASE VARIANTS AND METHODS OF USE THEREOF” (priority 2023, published 2026).
Changes are numbered by the printed parent chain.

Experiments:
Format in all cases: biochemical
[1] = molecular target: T1, chimeric pig-baboon uricase variant 3 (dURC3), F75Q/K76N/K79N/T83Q/E90H/F96H/I100E/Y105D/V119K/F172Y/L260N/I262T, SEQ ID NO: 3 (Sus scrofa, UniProt P16164, E96H/F102H/F178Y/F81Q/I106E/I268T/K82N/K85N/L266N/R291K/S46T/T301S/T89Q/V125K/Y111D); experiment: Michaelis Menten kinetics of uric acid conversion, dURC3; conditions: role: substrate
T1 construct: purified
T1 sequence (P16164 with tags, fused parts or gaps S46T/F81Q/K82N/K85N/T89Q/E96H/F102H/I106E/Y111D/V125K/F178Y/L266N/I268T/R291K/T301S): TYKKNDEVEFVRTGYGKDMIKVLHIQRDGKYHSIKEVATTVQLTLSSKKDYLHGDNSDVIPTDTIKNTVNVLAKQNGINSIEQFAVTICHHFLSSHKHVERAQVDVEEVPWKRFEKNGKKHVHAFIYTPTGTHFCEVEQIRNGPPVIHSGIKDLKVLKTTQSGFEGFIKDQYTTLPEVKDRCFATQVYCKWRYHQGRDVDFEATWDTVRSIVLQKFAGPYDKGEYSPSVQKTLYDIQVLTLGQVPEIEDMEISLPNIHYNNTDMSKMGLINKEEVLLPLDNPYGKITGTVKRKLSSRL
Protocol: An off-position amino acid mutation is defined as having a non-designed amino acid at a non-target site. […] Specifically, in the dURC1 backbone, the following mutations were tested separately: L154T; K155D; K155N; L157H; L157T; T159E; T159Q; and S162D; and in the dURC3 backbone, the K155N mutation was tested. […] The amino acid sequences of dURC1, dURC2, dURC3 and dURC4 are shown as SEQ ID NO: 1, 2, 3, and 4, respectively.
(§1) The activity of the purified enzymes was quantified by Michaelis Menten kinetic analysis, using the solution phase microplate assay across a range of substrate concentrations (FIG. 4B).

[2] = molecular target: T2, chimeric pig-baboon uricase variant 2 (dURC2), F75Q/K79E/T83Q/E90H/F96H/I100H/Y105D/V119K/Y127H/K155N/F172Y/L260N, SEQ ID NO: 2 (Sus scrofa, UniProt P16164, E96H/F102H/F178Y/F81Q/I106H/K161N/K85E/L266N/R291K/S46T/T301S/T89Q/V125K/Y111D/Y133H); experiment: Michaelis Menten kinetics of uric acid conversion, dURC2; conditions: role: substrate; purified enzyme, non-linear regression; Table 3
T2 construct: purified
T2 sequence (P16164 with tags, fused parts or gaps S46T/F81Q/K85E/T89Q/E96H/F102H/I106H/Y111D/V125K/Y133H/K161N/F178Y/L266N/R291K/T301S): T1 sequence (P16164 with tags, fused parts or gaps S46T/F81Q/K82N/K85N/T89Q/E96H/F102H/I106E/Y111D/V125K/F178Y/L266N/I268T/R291K/T301S) with N76K, N79E, E100H, Y127H, K155N, T262I
Protocol: (§2) Variants 1 (dURC1) and 3 (dURC3) were identified as possible lead candidates. Besides the mutations according to the library design, i.e., the designed mutations of F75Q; K79N; T83Q; E90H; F96H; I100E; Y105D; V119K; F172Y; L260N; and I262T, dURC3 comprised an off-position amino acid mutation K76N. An off-position amino acid mutation is defined as having a non-designed amino acid at a non-target site. […] Specifically, in the dURC1 backbone, the following mutations were tested separately: L154T; K155D; K155N; L157H; L157T; T159E; T159Q; and S162D; and in the dURC3 backbone, the K155N mutation was tested. […] The characteristics, including yield, activity, melting temperature measured by DSF, temperature at which 50% of normal activity was lost after heating measured by heat stress activity assay, Michaelis-Menten kinetics parameters, of variants 1, 2, 3, and 4 (i.e., dURC1, dURC2, dURC3 and dURC4), as well as the wild type chimeric pig-baboon uricase, are summarized in Table 2. The amino acid sequences of dURC1, dURC2, dURC3 and dURC4 are shown as SEQ ID NO: 1, 2, 3, and 4, respectively.
as §1

[3] = molecular target: T3, chimeric pig-baboon uricase variant 4 (dURC4), F75Q/K76N/K79N/T83Q/E90H/F96H/I100E/Y105D/V119K/K155N/F172Y/L260N/I262T, SEQ ID NO: 4 (Sus scrofa, UniProt P16164, E96H/F102H/F178Y/F81Q/I106E/I268T/K161N/K82N/K85N/L266N/R291K/S46T/T301S/T89Q/V125K/Y111D); experiment: Michaelis Menten kinetics of uric acid conversion, dURC4; conditions: role: substrate; purified enzyme, non-linear regression; Table 3
T3 construct: purified
T3 sequence (P16164 with tags, fused parts or gaps S46T/F81Q/K82N/K85N/T89Q/E96H/F102H/I106E/Y111D/V125K/K161N/F178Y/L266N/I268T/R291K/T301S): T1 sequence (P16164 with tags, fused parts or gaps S46T/F81Q/K82N/K85N/T89Q/E96H/F102H/I106E/Y111D/V125K/F178Y/L266N/I268T/R291K/T301S) with K155N
Protocol: as §2, §1

[4] = molecular target: T4, chimeric pig-baboon uricase variant 1 (dURC1), F75Q/K79E/T83Q/E90H/F96H/I100H/Y105D/V119K/Y127H/F172Y/L260N, SEQ ID NO: 1 (Sus scrofa, UniProt P16164, E96H/F102H/F178Y/F81Q/I106H/K85E/L266N/R291K/S46T/T301S/T89Q/V125K/Y111D/Y133H); experiment: Michaelis Menten kinetics of uric acid conversion, dURC1; conditions: role: substrate; purified enzyme, non-linear regression; Table 3
T4 construct: purified
T4 sequence (P16164 with tags, fused parts or gaps S46T/F81Q/K85E/T89Q/E96H/F102H/I106H/Y111D/V125K/Y133H/F178Y/L266N/R291K/T301S): T1 sequence (P16164 with tags, fused parts or gaps S46T/F81Q/K82N/K85N/T89Q/E96H/F102H/I106E/Y111D/V125K/F178Y/L266N/I268T/R291K/T301S) with N76K, N79E, E100H, Y127H, T262I
Protocol: as §2, §1

[5] = molecular target: T5, chimeric pig-baboon uricase, wild type, SEQ ID NO: 5 (Sus scrofa, UniProt P16164, R291K/S46T/T301S); experiment: Michaelis Menten kinetics of uric acid conversion, wild type chimeric pig-baboon uricase; conditions: role: substrate; purified enzyme, non-linear regression; Table 3
T5 construct: His6 (C); made in house; host or cells: E. coli
T5 sequence (P16164 with tags, fused parts or gaps S46T/R291K/T301S): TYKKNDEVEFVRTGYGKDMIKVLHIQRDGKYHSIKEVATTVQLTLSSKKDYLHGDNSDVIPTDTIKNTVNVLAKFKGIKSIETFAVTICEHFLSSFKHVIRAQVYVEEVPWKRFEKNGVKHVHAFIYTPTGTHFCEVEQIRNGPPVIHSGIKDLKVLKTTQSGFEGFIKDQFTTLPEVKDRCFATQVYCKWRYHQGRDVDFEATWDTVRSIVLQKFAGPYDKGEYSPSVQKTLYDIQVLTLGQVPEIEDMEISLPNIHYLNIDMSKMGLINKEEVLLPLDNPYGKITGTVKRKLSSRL
Excerpt: The monomeric form of the wild type chimeric pig-baboon uricase comprises the amino acid sequence of SEQ ID NO:5, where threonine is residue #1. The specified mutations in the chimeric pig-baboon uricase variants of this example are indexed to threonine as residue #1, as in SEQ ID NO:5. […] The expression vector pET-26b(+) encodes a His tag containing 6 histidine residues at the C-terminus of the inserted uricase gene.
as §1

[6] = molecular target: T6, PEGylated chimeric pig-baboon uricase, wild type, SEQ ID NO: 5 (Sus scrofa, UniProt P16164, R291K/S46T/T301S); experiment: Michaelis Menten kinetics of uric acid conversion, PEGylated wild type chimeric pig-baboon uricase; conditions: role: substrate, Table 4
T6 construct: His6 (C); made in house; host or cells: E. coli
T6 sequence (P16164 with tags, fused parts or gaps S46T/R291K/T301S limits assumed): T5 sequence (P16164 with tags, fused parts or gaps S46T/R291K/T301S)
Protocol: (§3) PEGylation of the wild type chimeric pig-baboon uricase or its variants was performed by the following procedure: • (1) adding 50 fold molar excess methoxy-PEG-(CH2)5COO—NHS of 10 kDa in molecular weight (Chemical Name: Poly(oxy-1,2-ethanediyl), α-methyl-ω-{2-[(2,5-dioxo-1-pyrrolidinyl)oxy]-6-oxohexyloxy}; NOF America Corporation, Cat #SUNBRIGHT ME-100HS) to purified uricase protein on ice and incubating with stirring for one hour; • (2) verifying radius by DLS (14-15 nm radius ~=wild type); • (3) concentrating PEGylated protein using stirred cell with 50 kDa filter to 15 ml; • (4) loading the concentrated PEGylated protein onto a SUPERDEX 200 HILOAD 26/600 column and eluting with PBS; • (5) pooling fractions identified as being mono-disperse by DLS; • (6) concentrating the pooled fractions using a stirred cell with 50 kDa filter to 5 mg/ml.
(§4) dURC3 and the wild type chimeric pig-baboon uricase were successfully PEGylated, with an average of about 10 PEG molecules conjugated to a uricase monomer, based on SDS-PAGE and size exclusion chromatography with multi-angle static light scattering (SEC-MALS) analysis. The activity quantified by Michaelis Menten kinetic analysis, as well as the melting temperature quantified by differential scanning fluorimetry, of PEGylated dURC3 and PEGylated wild type chimeric pig-baboon uricase was determined using the methods described in Example 1.

[7] = molecular target: T7, PEGylated chimeric pig-baboon uricase variant dURC3, F75Q/K76N/K79N/T83Q/E90H/F96H/I100E/Y105D/V119K/F172Y/L260N/I262T, SEQ ID NO: 3 (Sus scrofa, UniProt P16164, E96H/F102H/F178Y/F81Q/I106E/I268T/K82N/K85N/L266N/R291K/S46T/T301S/T89Q/V125K/Y111D); experiment: Michaelis Menten kinetics of uric acid conversion, PEGylated dURC3; conditions: role: substrate, Table 4
T7 construct: purified, PEGylated with 10 kDa mPEG-NHS, about 10 PEG per monomer
T7 sequence (P16164 with tags, fused parts or gaps S46T/F81Q/K82N/K85N/T89Q/E96H/F102H/I106E/Y111D/V125K/F178Y/L266N/I268T/R291K/T301S): T1 sequence (P16164 with tags, fused parts or gaps S46T/F81Q/K82N/K85N/T89Q/E96H/F102H/I106E/Y111D/V125K/F178Y/L266N/I268T/R291K/T301S)
Protocol: as §3, §4

- higher apparent kcat compared to the wild type ([1]; dURC3 relative to wild type chimeric pig-baboon uricase): 33%
- Apparent kcat ([1]; purified enzyme, non-linear regression, Table 3): 40 ± 2 arbitrary units
- Apparent kcat [2]: 34 ± 1 arbitrary units
- Apparent kcat [3]: 28.0 ± 0.5 arbitrary units
- Apparent kcat [4]: 43 ± 2 arbitrary units
- Apparent kcat [5]: 30 ± 1 arbitrary units
- Vmax [6]: 170 Δabs/min
- Vmax [7]: 67 Δabs/min
SMILES: O=c1[nH]c(=O)c2[nH]c(=O)[nH]c2[nH]1 [uric acid]
